Test results: patent US8178690B2, “Compounds and methods for inhibiting the interaction of BCL proteins with binding partners” (Infinity Pharmaceuticals, Inc., priority 2006, dated 2012)

Key:
Bcl-2 = Bcl-2 (Homo sapiens, UniProt P10415); assay: Bcl-2 binding affinity analysis (fluorescence polarization binding assay); settings: read-out: BcI2 (Ki, Bcl-2 binding affinity)
Bcl-xL = Bcl-xL (Homo sapiens, UniProt Q07817); assay: Bcl-xL binding affinity analysis (fluorescence polarization binding assay); settings: read-out: BcI-XI (Ki, Bcl-xL binding affinity)
Chain of Bcl-xL (Q07817 whole entry): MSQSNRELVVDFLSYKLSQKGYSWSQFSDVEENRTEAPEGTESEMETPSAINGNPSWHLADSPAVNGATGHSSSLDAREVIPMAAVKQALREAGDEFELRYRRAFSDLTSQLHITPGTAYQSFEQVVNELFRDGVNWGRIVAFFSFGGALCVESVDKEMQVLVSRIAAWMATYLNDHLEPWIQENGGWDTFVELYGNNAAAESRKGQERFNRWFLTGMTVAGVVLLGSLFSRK

Chain of Bcl-2 (P10415 whole entry): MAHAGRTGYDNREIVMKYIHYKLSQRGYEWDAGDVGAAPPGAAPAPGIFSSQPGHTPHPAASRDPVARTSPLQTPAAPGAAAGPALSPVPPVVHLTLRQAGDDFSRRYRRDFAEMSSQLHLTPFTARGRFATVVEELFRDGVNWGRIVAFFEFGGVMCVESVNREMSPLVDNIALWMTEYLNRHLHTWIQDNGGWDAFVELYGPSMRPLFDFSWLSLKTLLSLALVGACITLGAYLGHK

Row | Ki (Bcl-2) [nM] | Ki (Bcl-xL) [nM] | SMILES
1 | 1 to 5 | 1000 to 5000 | CCOc1c(CN2O[C@@H](CO)[C@@H]([C@H](C)O)[C@H]2C(=O)N[C@H]2C[C@H]3C[C@@H]([C@@H]2C)C3(C)C)cccc1-c1cc(C(=O)N[C@H](CN(C)C)CS(C)(=O)=O)cc(N(C)C)c1 [Compound 176]
2 | < 1 | < 1000 | COc1c(CN2O[C@@H](CO)[C@@H]([C@H](C)O)[C@H]2C(=O)N[C@H]2C[C@H]3C[C@@H]([C@@H]2C)C3(C)C)cccc1-c1cc(C(=O)N[C@@H](CCc2ccccc2)CN(C)C)cc([N+](=O)[O-])c1 [Compound 265]
3 | < 1 | > 10000 | COc1c(CN2O[C@@H](CN)[C@@H]([C@H](C)O)[C@H]2C(=O)N[C@H]2C[C@H]3C[C@@H]([C@@H]2C)C3(C)C)cccc1-c1cc(C(=O)N[C@@H]2CCN(C)C2)cc(N(C)C)c1 [Compound 213]
4 | > 9 | > 10000 | CNC(=O)c1cc(-c2cccc(CN3O[C@@H](CNCc4ccc(C(=O)O)cc4)[C@@H]([C@H](C)O)[C@H]3C(=O)N[C@H]3C[C@H]4C[C@@H]([C@@H]3C)C4(C)C)c2OC)cc(N(C)C)c1 [Compound 81]
5 | 5 to 9 | 5000 to 10000 | CNC(=O)c1cc(-c2cccc(CN3O[C@@H](CNCC4CC4)[C@@H]([C@H](C)O)[C@H]3C(=O)N[C@H]3C[C@H]4C[C@@H]([C@@H]3C)C4(C)C)c2OC)cc(N(C)C)c1 [Compound 96]
6 | < 1 | < 1000 | COc1c(CN2O[C@@H](CN)[C@@H]([C@H](C)O)[C@H]2C(=O)N[C@H]2C[C@H]3C[C@@H]([C@@H]2C)C3(C)C)cccc1-c1cc(C(=O)N[C@H](CN(C)C)CC(C)(C)C)cc(N(C)C)c1 [Compound 61]
7 | > 9 | > 10000 | COc1c(CN2O[C@@H](CN=C(N(C)C)N(C)C)[C@@H]([C@H](C)O)[C@H]2C(=O)N[C@H]2C[C@H]3C[C@@H]([C@@H]2C)C3(C)C)cccc1-c1cc(C(=O)NCCc2ccccc2)cc(N(C)C)c1 [Compound 86]
8 | < 1 | 1000 to 5000 | COc1c(CN2O[C@@H](CN)[C@@H]([C@H](C)O)[C@H]2C(=O)N[C@H]2C[C@H]3C[C@@H]([C@@H]2C)C3(C)C)cccc1-c1cc(C(=O)N[C@@H](Cc2ccccn2)CN(C)C)cc(N(C)C)c1 [Compound 252]
9 | < 1 | < 1000 | COc1c(CN2O[C@@H](CO)[C@@H]([C@H](C)O)[C@H]2C(=O)N[C@H]2C[C@H]3C[C@@H]([C@@H]2C)C3(C)C)cccc1-c1cc(C(=O)N[C@@H](Cc2ccccc2)CN(C)C)cc(N(C)C)c1 [Compound 37]
10 | < 1 | < 1000 | COc1c(CN2O[C@@H](CO)[C@@H]([C@H](C)O)[C@H]2C(=O)N[C@H]2C[C@H]3C[C@@H]([C@@H]2C)C3(C)C)cccc1-c1cc(C(=O)N[C@@H](Cc2ccccc2)CN(C)C)cc([N+](=O)[O-])c1 [Compound 264]
11 | < 1 | < 1000 | COc1c(CN2O[C@@H](CO)[C@@H]([C@H](C)O)[C@H]2C(=O)N[C@H]2C[C@H]3C[C@@H]([C@@H]2C)C3(C)C)cccc1-c1cc(C(=O)N[C@@H](CC(C)C)CN(C)C)cc(N(C)CC(C)C)c1 [Compound 271]
12 | < 1 | 1000 to 5000 | COc1c(-c2cc(C(=O)N[C@@H](Cc3ccccc3)CN(C)C)cc(N(C)C)c2)ccc(Cl)c1CN1O[C@@H](CO)[C@@H]([C@H](C)O)[C@H]1C(=O)N[C@H]1C[C@H]2C[C@@H]([C@@H]1C)C2(C)C [Compound 274]
13 | < 1 | < 1000 | COc1c(CN2O[C@@H](CO)[C@@H]([C@H](C)O)[C@H]2C(=O)N[C@H]2C[C@H]3C[C@@H]([C@@H]2C)C3(C)C)cccc1-c1cc(C(=O)N[C@@H](Cc2ccccc2)CN(C)C)cc(N(C)CC(=O)N(C)C)c1 [Compound 308]
14 | < 1 | < 1000 | CCOc1c(CN2O[C@@H](CO)[C@@H]([C@H](C)O)[C@H]2C(=O)N[C@H]2C[C@H]3C[C@@H]([C@@H]2C)C3(C)C)cccc1-c1cc(C(=O)N[C@@H](Cc2ccccc2)CN2CCCC2)cc(N(C)C)c1 [Compound 182]
15 | > 9 | > 10000 | CNC(=O)c1cc(-c2cccc(CN3O[C@@H](CNCc4ccncc4)[C@@H]([C@H](C)O)[C@H]3C(=O)N[C@H]3C[C@H]4C[C@@H]([C@@H]3C)C4(C)C)c2OC)cc(N(C)C)c1 [Compound 82]
16 | < 1 | 5000 to 10000 | COc1c(CN2O[C@@H](CN)[C@@H]([C@H](C)O)[C@H]2C(=O)N[C@H]2C[C@H]3C[C@@H]([C@@H]2C)C3(C)C)cccc1-c1cc(C(=O)NCCc2ccccc2)cc(N(C)C)c1 [Compound 62]
17 | < 1 | < 1000 | COc1c(CN2O[C@@H](CO)[C@@H]([C@H](C)O)[C@H]2C(=O)N[C@H]2C[C@H]3C[C@@H]([C@@H]2C)C3(C)C)cccc1-c1cc(C(=O)N[C@H](Cc2ccccc2)CN(C)C)cc(N(C)C)c1 [Compound 113]
18 | < 1 | 5000 to 10000 | COc1c(CN2O[C@@H](CN)[C@@H]([C@H](C)O)[C@H]2C(=O)N[C@H]2C[C@H]3C[C@@H]([C@@H]2C)C3(C)C)cccc1-c1cc(C(=O)N[C@@H](Cc2cscn2)C(=O)N(C)C)cc(N(C)C)c1 [Compound 67]
19 | > 9 | > 10000 | CNC(=O)c1cc(-c2cccc(CN3O[C@@H](CN)[C@@H]([C@H](C)OC(=O)N(C)C)[C@H]3C(=O)N[C@H]3C[C@H]4C[C@@H]([C@@H]3C)C4(C)C)c2OC)cc(N(C)C)c1 [Compound 87]
20 | 1 to 5 | > 10000 | C[C@@H]1[C@@H](NC(=O)[C@@H]2[C@H]([C@H](C)O)[C@H](CN)ON2Cc2cccc(-c3cc(C(=O)NCCN(C)C)cc(N(C)C)c3)c2F)C[C@H]2C[C@@H]1C2(C)C [Compound 53]
21 | < 1 | < 1000 | C[C@@H]1[C@@H](NC(=O)[C@@H]2[C@H]([C@H](C)O)[C@H](CO)ON2Cc2cccc(-c3cc(C(=O)N[C@@H](Cc4ccccc4)CN(C)C)cc(N(C)C)c3)c2OCCN2CCOCC2)C[C@H]2C[C@@H]1C2(C)C [Compound 230]
22 | 1 to 5 | 1000 to 5000 | COc1c(CN2O[C@@H](CO)[C@@H]([C@H](C)O)[C@H]2C(=O)N[C@H]2C[C@H]3CC([C@@H]2C)C3(C)C)ccc(Cl)c1-c1cc(C(=O)N[C@@H](CC(C)C)CN(C)C)cc(N(C)C)c1 [Compound 183]
23 | > 9 | > 10000 | CNC(=O)c1cc(-c2cccc(CN3O[C@@H](CNCc4cccc(C(=O)O)c4)[C@@H]([C@H](C)O)[C@H]3C(=O)N[C@H]3C[C@H]4C[C@@H]([C@@H]3C)C4(C)C)c2OC)cc(N(C)C)c1 [Compound 84]
24 | < 1 | 1000 to 5000 | C[C@@H]1[C@@H](NC(=O)[C@@H]2[C@H]([C@H](C)O)[C@H](CO)ON2Cc2cccc(-c3cc(C(=O)N[C@@H](Cc4ccccc4)CN(C)C)cc(N(C)C)c3)c2OCCN(C)C)C[C@H]2C[C@@H]1C2(C)C [Compound 100]
25 | < 1 | < 1000 | COc1c(CN2O[C@@H](CO)[C@@H]([C@H](C)O)[C@H]2C(=O)N[C@H]2C[C@H]3C[C@@H]([C@@H]2C)C3(C)C)cccc1-c1cc(C(=O)N[C@@H](Cc2ccccc2)CN(C)C)cc(N(C)CC(=O)O)c1 [Compound 306]
